Results from patent publication US5679689A, “Quinolone- and naphthyridonecarboxylic acid derivatives” (Bayer Aktiengesellschaft, priority 1994, dated 1997).
≈ marks a conversion by molar mass, not a printed value.

How the values were obtained:
Staph. aureus ICB 25701 = test: Minimum inhibitory concentration (MIC), serial dilution on Iso-Sensitest Agar; format: cell-based; conditions: Staphylococcus aureus, ICB25701, 37° C., about 20 hours
Procedure: (§1) In the following Tables 9 and 10, the minimum inhibitory concentration are shown as a measure of the antibacterial activity and the ID50 values as a measure of the interactions with mammalian DNA of a substance both for compounds according to the invention and for reference compounds from the prior art (EP 520 240).
(§2) The minimum inhibitory concentration (MIC) were determined by a serial dilution method on Iso-Sensitest Agar (Oxoid). For each test substance, a number of agar plates were prepared which, with doubled dilution in each case, contained decreasing concentrations of the active compound. The agar plates were inoculated using a multipoint inoculator (Denley). For inoculation, overnight cultures of the pathogens were used which had previously been diluted such that each inoculation point contained about […] colony-forming particles. The inoculated agar plates were incubated at 37° C. and the microorganism growth was read off after about 20 hours. The MIC value (μg/ml) indicates the lowest active compound concentration at which no growth could be detected using the naked eye.

E. coli Neumann = test: as above; format: cell-based; conditions: Escherichia coli, 37° C., about 20 hours
Procedure: as §1, §2

[1] = Inhibition of DNA synthesis in CHO-KI cells (interaction with mammalian DNA), fluorophotometric; format: cell-based, Chinese hamster; conditions: hamster, cho-k1 cells; concentration at which DNA synthesis in CHO-KI cells is inhibited by 50%; read-out: ID50 (the source's name)
Excerpt: as §1
ID50 is understood as meaning the concentration of a substance at which the DNA synthesis in cells from ovaries of the Chinese hamster (CHO-KI) is inhibited by 50%. This value is determined over defined time intervals in decreasing dilution steps after incubation of the appropriate substances. To do this, the DNA synthesis in CHO-KI cells is determined in comparison to controls by means of fluorophotometric methods.

Bac. fragilis ES 25 = test: Minimum inhibitory concentration (MIC), serial dilution on Iso-Sensitest Agar; format: cell-based; conditions: Bacteroides fragilis, ES25, 37° C., about 20 hours
Procedure: as §2

Staph. aureus 133 = test: as above; format: cell-based; conditions: Staphylococcus aureus, 37° C., about 20 hours
Procedure: as §2

Ps. aeruginosa Walter = test: as above; format: cell-based; conditions: Pseudomonas aeruginosa, 37° C., about 20 hours
Procedure: as §2

Row | SMILES | MIC (Staph. aureus ICB 25701) [µg/mL] | MIC (E. coli Neumann) [µg/mL] | IC50 [1] [µg/mL] | MIC (Bac. fragilis ES 25) [µg/mL] | MIC (Staph. aureus 133) [µg/mL] | MIC (Ps. aeruginosa Walter) [µg/mL]
1 | NC12C=CC=CC1CN(c1c(F)cc3c(=O)c(C(=O)O)cn(C4CC4)c3c1F)C2 (stereo not drawn) [Example 2, 7-(3a-amino-1,2,3,7a-tetrahydroisoindol-2-yl)-1-cyclopropyl-6,8-difluoro-1,4-dihydro-4-oxo-3-quinolinecarboxylic acid] | 2 (≈ 5.01 µM) | ≤ 0.015 | 32 (≈ 80.1 µM) | 1 (≈ 2.5 µM) | 0.06 (≈ 0.15 µM) | 1 (≈ 2.5 µM)
2 | COc1c(N2CC3C=CC=CC3(N)C2)c(F)cc2c(=O)c(C(=O)O)cn(C3CC3)c12 (stereo not drawn) [Example 4, 7-(3a-amino-1,2,3,7a-tetrahydro-isoindolo2-yl)-1-cyclopropyl-6-fluoro-1,4-dihydro-8-methoxy-4-oxo-3-quinolinecarboxylic acid] | 0.5 (≈ 1.22 µM) | ≤ 0.015 | > 64 | 2 (≈ 4.86 µM) | ≤ 0.015 | 0.5 (≈ 1.22 µM)
3 | NC12C=CC=CC1CN(c1c(F)cc3c(=O)c(C(=O)O)cn([C@@H]4C[C@@H]4F)c3c1F)C2 (stereo partly drawn) [Example 8, 7-(3a-amino-1,2,3,7a-tetrahydro-isoindol-2-yl)-6,8-difluoro-1-(cis-2-fluorocydopropyl)-1,4-dihydro-4-oxo-3-quinolineearboxylic acid] | 0.5 (≈ 1.2 µM) | ≤ 0.015 | 16 (≈ 38.3 µM) | 0.5 (≈ 1.2 µM) | 0.03 (≈ 0.0719 µM) | 0.5 (≈ 1.2 µM)
4 | NC12C=CC=CC1CN(c1nc3c(cc1F)c(=O)c(C(=O)O)cn3C1CC1)C2 (stereo not drawn) [Example 9, 7-(3a-amino-1,2,3,7a-tetrahydro-isoindol-2-yl)-1-cyclopropyl-6-fluoro-1,4-dihydro-4-oxo-1,8-naphthyridine-3-carboxylic acid] | 8 (≈ 20.9 µM) | ≤ 0.015 | 32 (≈ 83.7 µM) | 4 (≈ 10.5 µM) | 0.06 (≈ 0.157 µM) | 1 (≈ 2.62 µM)

Now those with a lower MIC (Staph. aureus ICB 25701), led by results:

Row | MIC (Staph. aureus ICB 25701) [µg/mL] | MIC (E. coli Neumann) [µg/mL] | IC50 [1] [µg/mL] | MIC (Bac. fragilis ES 25) [µg/mL] | MIC (Staph. aureus 133) [µg/mL] | MIC (Ps. aeruginosa Walter) [µg/mL] | SMILES
5 | 0.25 (≈ 0.601 µM) | ≤ 0.015 | 32 (≈ 77 µM) | 0.125 (≈ 0.301 µM) | ≤ 0.015 | 0.5 (≈ 1.2 µM) | NC12C=CC=CC1CN(c1c(F)cc3c(=O)c(C(=O)O)cn(C4CC4)c3c1Cl)C2 (stereo not drawn) [Example 3, 7-(3a-amino-1,2,3,7a-tetrahydro-isoindol-2-yl)-8-chloro-1-cyclopropyl-6-fluoro-1,4-dihydro-4-oxo-3-quinolineearboxylic acid]
6 | 0.06 (≈ 0.144 µM) | 0.015 (≈ 0.0361 µM) | 0.015 (≈ 0.0361 µM) | 0.5 (≈ 1.2 µM) | 0.015 (≈ 0.0361 µM) | 0.5 (≈ 1.2 µM) | CC1C=CC(N)C2CN(c3c(F)cc4c(=O)c(C(=O)O)cn(C5CC5)c4c3F)CC12 (stereo not drawn) [Ref. 1, 7(4-Amino-7-methyl-1,3,3a,4,7,7a-hexahydro-isoindol-2-yl)-1-cyclopropyl-6 8-difluoro-1,4-dihydro-4-oxo-3-quinolinecarboxylic acid, reference compound]
7 | 0.015 (≈ 0.0351 µM) | 0.015 (≈ 0.0351 µM) | 0.1 (≈ 0.234 µM) | 0.25 (≈ 0.585 µM) | 0.015 (≈ 0.0351 µM) | 1 (≈ 2.34 µM) | COc1c(N2CC3C(C)C=CC(N)C3C2)c(F)cc2c(=O)c(C(=O)O)cn(C3CC3)c12 (stereo not drawn) [Ref. 2, 7(4-Amino-7-methyl-1,3,3a,4,7,7a-hexahydro-isoindol-2-yl)-1-cyclopropyl-6 fluoro-1,4-dihydro-8-methoxy-4-oxo-3-quinolinecarboxylic acid, reference compound]
8 | 0.015 (≈ 0.0347 µM) | 0.015 (≈ 0.0347 µM) | 0.1 (≈ 0.232 µM) | 0.125 (≈ 0.289 µM) | 0.015 (≈ 0.0347 µM) | 0.5 (≈ 1.16 µM) | CC1C=CC(N)C2CN(c3c(F)cc4c(=O)c(C(=O)O)cn(C5CC5)c4c3Cl)CC12 (stereo not drawn) [Ref. 3, 7(4-Amino-7-methyl-1,3,3a,4,7,7a-hexahydro-isoindol-2-yl)-8-chloro-1-cycl propyl-6-fluoro-1,4-dihydro-4-oxo-3-quinolinecarboxylic acid, reference compound]
